# Measured values from patent US20030130174A1, “Glycosulfopeptide inhibitors of leukocyte rolling and methods of use thereof” (priority 2001, published 2003).
# Where a SMILES comes first, the peptide text is derived from it. [ ]: non-standard residue; d: D form. The star is where a group is joined. X1 = CC(=O)N[C@@H]1[C@@H](O[C@@H]2O[C@H](CO)[C@H](O)[C@H](O)[C@H]2O)[C@@H](O)[C@@H](CO[C@@H]2O[C@H](CO)[C@@H](O[C@@H]3O[C@H](CO)[C@H](O)[C@H](O[C@]4(C(=O)O)C[C@H](O)[C@@H](NC(C)=O)[C@H]([C@H](O)[C@H](O)CO)O4)[C@H]3O)[C@H](O[C@@H]3O[C@@H](C)[C@@H](O)[C@@H](O)[C@@H]3O)[C@H]2NC(C)=O)O[C@@H]1*; sY = N[C@@H](Cc1ccc(OS(=O)(=O)O)cc1)C(=O)O
# Conditions: mouse, in vivo
# Protocol: Microscopic observations were made using an upright microscope (NIKON ECLIPSE E600-FN, Nikon UK Ltd, UK) equipped with a water immersion objective (40×/0.80 W). Images were recorded using a CCD camera (DAGE MTI DC-330, DAGE MTI Inc, Michigan City, Ind.) onto sVHS video-cassettes. Venules (20-40 μM diameter) were selected and typically observed for the entire experimental period. Centre-line blood flow velocity (VCL) in was measured in vessels of interest using a commercially available velocimeter (CIRCUSOFT, Hockessin, Del.). Vessels with VCL between 1 and 5 mm/s were selected for these studies.
# Control leukocyte rolling was recorded exactly 30 min after exposure of the cremaster muscle for intravital microscopy since leukocyte rolling at this time is almost exclusively P-selectin-dependent . GSPs were injected at 31 min and their effects monitored for 10 min. […] Blood flow velocities and circulating leukocyte concentrations were measured at key times (before and after treatments) during experiments.
smiles,measurement,value
CC(=O)N[C@H]1[C@H](OC[C@H]2O[C@H](O[C@H](C)[C@H](NC(=O)[C@H](CCC(=O)O)NC(=O)[C@@H]3CCCN3C(=O)[C@H](CC(C)C)NC(=O)[C@H](Cc3ccccc3)NC(=O)[C@H](CC(=O)O)NC(=O)[C@H](Cc3ccc(OS(=O)(=O)O)cc3)NC(=O)[C@H](CC(=O)O)NC(=O)[C@H](CC(C)C)NC(=O)[C@H](Cc3ccc(OS(=O)(=O)O)cc3)NC(=O)[C@H](CCC(=O)O)NC(=O)[C@H](Cc3ccc(OS(=O)(=O)O)cc3)NC(=O)[C@@H](N)CCC(=O)O)C(=O)N[C@@H](CCC(=O)O)C(=O)N3CCC[C@H]3C(=O)N3CCC[C@H]3C(=O)N[C@@H](CCC(=O)O)C(=O)N[C@@H](CS)C(=O)O)[C@H](NC(C)=O)[C@@H](O[C@@H]3O[C@H](CO)[C@H](O)[C@H](O)[C@H]3O)[C@H]2O)O[C@H](CO)[C@@H](O[C@@H]2O[C@H](CO)[C@H](O)[C@H](O[C@]3(C(=O)O)C[C@H](O)[C@@H](NC(C)=O)[C@H]([C@H](O)[C@H](O)CO)O3)[C@H]2O)[C@@H]1O[C@@H]1O[C@@H](C)[C@@H](O)[C@@H](O)[C@@H]1O [2-GSP-6] (H-E[sY]E[sY]LD[sY]DFLPET(X1)EPPEC-OH),Systemic leukocyte counts following treatment,increased slightly
